Tested on: male mice (ICR)
Assay: Muscle relaxation activity by grip strength test (forelimbs)
Format: in vivo
Conditions: intraperitoneal; for Grip strength, percentage compared to the vehicle only (100%): dose 200 (unit not given)
Method: For testing, male mice (ICR) were purchased from ORIENT BIO INC. (Korea), divided into several groups with 6 mice in each group, and were adapted for 4-5 days. The mice having the weight ranging from 19 g to 26 g were employed for the test. The pharmacological effect of the test compounds on muscle relaxation was evaluated by Rotarod test, grip strength test, and muscular force (wire hang) test. All mice were adapted to the test environment at one hour before starting the tests. The pharmacological effects of all the test compounds were evaluated by administration through peritoneal cavity of the mice (10 ul/g, bw).
The test was conducted before and after administration of the compounds to evaluate the effects thereof. […] The mouse was made to grip the rod with its forelimbs, and its tail was pulled, where the force at which the mouse detached from the rod was recorded. The instrument indicated the force in grams. All of the mice were given 3 opportunities for test, and the 3 highest values among the test opportunities were selected and the mean value was used as the test result. […] Psychopharmacol. 110: 92-96’.
The obtained results are shown as mean±sem. The difference between the groups was statistically analyzed by ANOVA, and then, further examined by Dunnett's test or Bonferroni test. If p is less than 0.05, it was determined that the difference between the groups had statistical significance.

Row | SMILES | Grip strength, percentage compared to the vehicle only (100%) | ED50 (Mus musculus, ip, ED50 = 50% of muscle relaxation activity compared to vehicle only (100%), determined at 0.5 h (time of maximum effect)) [mg/kg]
1 | CCC1(CC)O[C@@H](COS(N)(=O)=O)[C@H](c2ccccc2Cl)O1 [Example 8, ((4S,4S)-5-(2-chlorophenyl)-2,2-diethyl-1,3-dioxolan-4-yl)methyl sulfamate] | 200 (59.6%) | 
2 | CCC1(CC)O[C@@H](COS(N)(=O)=O)[C@H](c2ccccc2N)O1 [Example 70, ((4S,5S)-5-(2-aminophenyl)-2,2-diethyl-1,3-dioxolan-4-yl)methyl sulfamate] | 200 (78.6%) | 
3 | Nc1ccccc1[C@@H]1OC(c2ccccc2)O[C@H]1COS(N)(=O)=O (stereo partly drawn) [Example 76, ((4S,5S)-5-(2-aminophenyl)-2-phenyl-1,3-dioxolan-4-yl)methyl sulfamate] | 200 (78.5%) | 
4 | CCC1(CC)O[C@@H](CCOS(N)(=O)=O)[C@H](c2ccccc2Cl)O1 [Example 156, 2-((4S,5S)-5-(2-chlorophenyl)-2,2-diethyl-1,3-dioxolan-4-yl)ethyl sulfamate] | 200 (73.2%) | 
5 | NS(=O)(=O)OC[C@@H]1OC2(CCCC2)O[C@H]1c1ccccc1Cl [Example 10, ((2S,3S)-3-(2-chlorophenyl)-1,4-dioxaspiro[4,4]nonan-2-yl)methyl sulfamate] | 200 (91.2%) | 
6 | NS(=O)(=O)OCC[C@@H]1OC2(CCCC2)O[C@H]1c1ccccc1 [Example 134, 2-((2S,3S)-3-phenyl-1,4-dioxaspiro[4,4]nonan-2-yl)ethyl sulfamate] | 200 (90.1%) | 
7 | CC1(C)O[C@H](COS(N)(=O)=O)[C@@H](Cc2ccccc2)O1 [Example 122, ((4R,5R)-5-benzyl-2,2-dimethyl-1,3-dioxolan-4-yl)methyl sulfamate] | 200 (61.6%) | 
8 | NS(=O)(=O)OCC[C@H]1OC2(CCCC2)O[C@@H]1Cc1ccccc1Cl [Example 142, 2-((2R,3R)-3-(2-chlorobenzyl)-1,4-dioxaspiro[4,4]nonan-2-yl)ethyl sulfamate] | 200 (66.8%) | 
9 | CC1(C)O[C@H](COS(N)(=O)=O)[C@@H](Cc2ccccc2Cl)O1 [Example 146, ((4R,5R)-5-(2-chlorobenzyl)-2,2-dimethyl-1,3-dioxolan-4-yl)methyl sulfamate] | 200 (79.2%) | 
10 | CC1(C)O[C@H](c2ccccc2I)[C@@H](COS(N)(=O)=O)O1 [Example 27, ((4R,5R)-5-(2-iodophenyl)-2,2-dimethyl-1,3-dioxolan-4-yl)methyl sulfamate] |  | 378
11 | NS(=O)(=O)OC[C@@H]1OC2(CCCC2)O[C@H]1c1ccccc1 [Example 110, ((2S,3S)-3-phenyl-1,4-dioxaspiro[4,4]nonan-2-yl)methyl sulfamate] | 200 (62.9%) | 
12 | CC1(C)O[C@@H](CCOS(N)(=O)=O)[C@H](c2ccccc2)O1 [Example 130, 2-((4S,5S)-5-phenyl-2,2-dimethyl-1,3-dioxolan-4-yl)ethyl sulfamate] | 200 (91.4%) | 
13 | CCC1(CC)O[C@@H](COS(N)(=O)=O)[C@H](c2ccccc2)O1 [Example 108, ((4S,5S)-5-phenyl-2,2-diethyl-1,3-dioxolan-4-yl)methyl sulfamate] | 200 (66.8%) | 
14 | CCC1(CC)O[C@@H](CCOS(N)(=O)=O)[C@H](c2ccccc2)O1 [Example 132, 2-((4S,5S)-5-phenyl-2,2-diethyl-1,3-dioxolan-4-yl)ethyl sulfamate] | 200 (25.7%) | 
15 | CCC1(CC)O[C@H](COS(N)(=O)=O)[C@@H](Cc2ccccc2Cl)O1 [Example 148, ((4R,5R)-5-(2-chlorobenzyl)-2,2-diethyl-1,3-dioxolan-4-yl)methyl sulfamate] | 200 (70.2%) | 
16 | NS(=O)(=O)OC[C@H]1OC2(CCCC2)O[C@@H]1Cc1ccccc1Cl [Example 150, ((2R,3R)-3-(2-chlorobenzyl)-1,4-dioxaspiro[4,4]nonan-2-yl)methyl sulfamate] | 200 (89.8%) | 
17 | NS(=O)(=O)OC[C@H]1OC2(CCCCC2)O[C@@H]1Cc1ccccc1Cl [Example 152, ((2R,3R)-3-(2-chlorobenzyl)-1,4-dioxaspiro[4,5]decan-2-yl)methyl sulfamate] | 200 (77.2%) | 
18 | NS(=O)(=O)OC[C@@H]1OC2(CCCCC2)O[C@H]1c1ccccc1 [Example 112, ((2S,3S)-3-phenyl-1,4-dioxaspiro[4,5]decan-2-yl)methyl sulfamate] | 200 (33.2%) | 

Row | SMILES | Grip strength, percentage compared to the vehicle only (100%) | ED50 (Mus musculus, ip, ED50 = 50% of muscle relaxation activity compared to vehicle only (100%), determined at 0.5 h (time of maximum effect)) [mg/kg]
19 | NS(=O)(=O)OC[C@@H]1OC(=O)O[C@H]1c1ccccc1[N+](=O)[O-] [Example 90, ((4S,5S)-5-(2-nitrophenyl)-2-oxo-1,3-dioxolan-4-yl)methyl sulfamate] | 200 (43.8%) | 
20 | NS(=O)(=O)OCC[C@H]1OC2(CCCC2)O[C@@H]1Cc1ccccc1 [Example 118, 2-((2R,3R)-3-benzyl-1,4-dioxaspiro[4,4]nonan-2-yl)ethyl sulfamate] | 200 (83.7%) | 
21 | NS(=O)(=O)OCC[C@H]1OC2(CCCCC2)O[C@@H]1Cc1ccccc1 [Example 120, 2-((2R,3R)-3-benzyl-1,4-dioxaspiro[4,5]decan-2-yl)ethyl sulfamate] | 200 (80.5%) | 
22 | CC1(C)O[C@@H](COS(N)(=O)=O)[C@H](c2ccccc2)O1 [Example 106, ((4S,5S)-5-phenyl-2,2-dimethyl-1,3-dioxolan-4-yl)methyl sulfamate] | 200 (62.8%) | 
23 | NS(=O)(=O)OCC[C@@H]1OC2(CCCCC2)O[C@H]1c1ccccc1Cl [Example 160, 2-((2S,3S)-3-(2-chlorophenyl)-1,4-dioxaspiro[4,5]decan-2-yl)ethyl sulfamate] | 200 (86.8%) | 
24 | NS(=O)(=O)OC[C@H]1OC2(CCCC2)O[C@@H]1Cc1ccccc1 [Example 126, ((2R,3R)-3-benzyl-1,4-dioxaspiro[4,4]nonan-2-yl)methyl sulfamate] | 200 (76.7%) | 
25 | NS(=O)(=O)OC[C@H]1OC2(CCCCC2)O[C@@H]1Cc1ccccc1 [Example 128, ((2R,3R)-3-benzyl-1,4-dioxaspiro[4,5]decan-2-yl)methyl sulfamate] | 200 (81.4%) | 
26 | CC1(C)O[C@H](CCOS(N)(=O)=O)[C@@H](Cc2ccccc2Cl)O1 [Example 138, 2-((4R,5R)-5-(2-chlorobenzyl)-2,2-dimethyl-1,3-dioxolan-4-yl)ethyl sulfamate] | 200 (70.1%) | 
27 | CCC1(CC)O[C@H](CCOS(N)(=O)=O)[C@@H](Cc2ccccc2Cl)O1 [Example 140, 2-((4R,5R)-5-(2-chlorobenzyl)-2,2-diethyl-1,3-dioxolan-4-yl)ethyl sulfamate] | 200 (73.4%) | 
28 | CC1(C)O[C@H](CCOS(N)(=O)=O)[C@@H](Cc2ccccc2)O1 [Example 114, 2-((4R,5R)-5-benzyl-2,2-dimethyl-1,3-dioxolan-4-yl)ethyl sulfamate] | 200 (75.4%) | 
29 | CCC1(CC)O[C@H](CCOS(N)(=O)=O)[C@@H](Cc2ccccc2)O1 [Example 116, 2-((4R,5R)-5-benzyl-2,2-diethyl-1,3-dioxolan-4-yl)ethyl sulfamate] | 200 (81.6%) | 
30 | CCC1(CC)O[C@H](COS(N)(=O)=O)[C@@H](Cc2ccccc2)O1 [Example 124, ((4R,5R)-5-benzyl-2,2-diethyl-1,3-dioxolan-4-yl)methyl sulfamate] | 200 (81.0%) | 
31 | NS(=O)(=O)OCC[C@@H]1OC2(CCCCC2)O[C@H]1c1ccccc1 [Example 136, 2-((2S,3S)-3-phenyl-1,4-dioxaspiro[4,5]decan-2-yl)ethyl sulfamate] | 200 (80.8%) | 
32 | CNc1ccccc1[C@@H]1OC(C)(C)O[C@H]1COS(=O)(=O)NC [Example 104, ((4S,5S)-5-(2-methylaminophenyl)-2,2-dimethyl-1,3-dioxolan-4-yl)methyl methylsulfamate] | 200 (71.3%) | 
33 | NS(=O)(=O)OC[C@@H]1OC2(CCCCC2)O[C@H]1c1ccccc1Cl [Example 12, ((2S,3S)-3-(2-chlorophenyl)-1,4-dioxaspiro[4,5]decan-2-yl)methyl sulfamate] | 200 (57.7%) | 
34 | Nc1ccccc1[C@@H]1OC2(CCCC2)O[C@H]1COS(N)(=O)=O [Example 72, ((2S,3S)-3-(2-aminophenyl)-1,4-dioxaspiro[4,4]nonan-2-yl)methyl sulfamate] | 200 (87.0%) | 
35 | Cc1ccccc1[C@@H]1OC(C)(C)O[C@H]1COS(N)(=O)=O [Example 92, ((4S,5S)-5-(2-methylphenyl)-2,2-dimethyl-1,3-dioxolan-4-yl)methyl sulfamate] | 200 (46.2%) | 
36 | NS(=O)(=O)OCC[C@@H]1OC2(CCCC2)O[C@H]1c1ccccc1Cl [Example 158, 2-((2S,3S)-3-(2-chlorophenyl)-1,4-dioxaspiro[4,4]nonan-2-yl)ethyl sulfamate] | 200 (74.2%) | 
